Reference: patent US9618507B2, “Methods of treating rheumatoid arthritis” (Betanien Hospital, priority 2014, dated 2017)
Read-outs that look alike come from different tables or passages of the source. Marks after values point to notes of the source that are not given here. Where a SMILES comes first, the peptide text is derived from it. [ ]: non-standard residue; d: D form. dPhe(4-Cl) = N[C@H](Cc1ccc(Cl)cc1)C(=O)O; d2Nal = N[C@H](Cc1ccc2ccccc2c1)C(=O)O; dCit = NC(=O)NCCC[C@@H](N)C(=O)O; d3Pal = N[C@H](Cc1cccnc1)C(=O)O

Tests used:
[1] = test system: RA patients; assay: Example 1: adverse events; assay type: in vivo, human
Protocol: (§1) Ethical committee approval was obtained. […] Safety and efficacy visits, with blood sampling, were between 0730 and 0930 h on days 1 (baseline), 2, 3, 4, 5 (visit 5a), 10, and 15. There was an additional visit (visit 5b) between 1930 and 2130 h when maximum GnRH suppression was anticipated.
Predefined secondary end-points included the baseline adjusted between-group difference inTNF-α, ACR20/50/70 responses, European League Against Rheumatism (EULAR) responses, DAS28-CRP <2.6 and ≦3.2, and adverse events.
The Newcombe hybrid score interval was used to estimate 95% confidence intervals (CI) for the difference between proportions (Fagerland M W, et al., Stat Methods Med Res 2011). No adjustments for multiple analyses were made, owing to the highly correlated variables. All clinical, biochemical, and safety data were analyzed by an intention-to-treat analysis. Only predefined endpoints are presented. The intention-to-treat population was predefined in the protocol as all randomized patients who received any injections of study drug. Missing values were <1% and could, as predefined, be imputed with the last observation carried forward. The assumptions of normality needed for analyses were approximately valid. The Spearman rank correlation coefficient (Spearman's rho) was used to estimate the association between pairs of continuous variables.

[2] = target: T1, GnRH receptors (Rattus norvegicus, UniProt P30969); details: rats; Rick F G, et al., Prostate 2011; cited from earlier work
T1 construct: through GnRH receptors in rats; host or cells: rats (in vivo)
T1 sequence (P30969 1-327): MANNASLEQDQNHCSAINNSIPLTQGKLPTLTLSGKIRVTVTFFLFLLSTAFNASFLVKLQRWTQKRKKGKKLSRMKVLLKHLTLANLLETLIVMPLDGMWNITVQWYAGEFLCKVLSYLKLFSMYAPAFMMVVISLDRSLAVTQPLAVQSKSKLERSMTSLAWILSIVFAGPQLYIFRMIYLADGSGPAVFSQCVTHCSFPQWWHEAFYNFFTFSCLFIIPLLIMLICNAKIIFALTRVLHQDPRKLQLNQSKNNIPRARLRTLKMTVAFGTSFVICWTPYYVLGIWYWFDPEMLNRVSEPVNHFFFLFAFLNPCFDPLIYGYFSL

[3] = test system: gonadotropins, oestradiol, testosterone, cortisol; assay: Example 2: hormones (gonadotropins, oestradiol, testosterone, cortisol) in high gonadotropin patients; assay type: in vivo, human
Source text: Non-competitive immunofluorometric assays were used for the quantitative determination of serum LH and FSH (Dissociation Enhanced Lanthanide Fluoroimmunoassay [DELFIA] kit, Turku, Finland). A competitive immunofluorometric assay was used for the determination of serum oestradiol (DELFIA kit, Turku, Finland). A competitive radioimmunoassay was used for the quantitative determination of serum testosterone (Orion Diagnostica. Espoo, Finland). A competitive Iuminoimmunoassay was used for the quantitative determination of serum cortisol (Immulite 2000, California, USA).

[4] = test system: TNF-α; assay: Example 1: serum TNF-α, high sensitivity bead-based fluorescence immunoassay; assay type: in vivo, human; details: by day 5
Protocol: as §1
TNF-α was measured using a high sensitivity bead-based fluorescence immunoassay (Luminex Inc., Austin, Tex. USA) with multiplex technology according to the manufacturers' instructions. […] Samples were assayed together within the same microplate on the same day. The assay sensitivity for TNF-α was 0.5 pg/mL. Due to its skewed distribution, the statistical analysis gives both the log and relative change (%) of TNF-α from baseline.

[5] = test system: TNF-α; assay: Example 2: serum cytokine, multiplex high-sensitivity assay, TNF-α; assay type: in vivo, human; details: high gonadotropin patients
Protocol: The protocol-specified primary and secondary intention-to-treat endpoints of the original AGRA trial were analyzed in these post hoc analyses. The primary endpoint was the baseline-adjusted between-group difference in DAS28-CRP (Wells et al., supra) by day 5b. Secondary endpoints included the baseline-adjusted between-group difference in cytokines, proportions of patients achieving at least a 20%, 50%, and 70% improvement on the ACR scale (Felson D T, et al., Arthritis Rheum 1995; 38:727-35), categorical DAS28-CRP (European League Against […] [EULAR]) responses (Wells et al., supra; van Gestel A M, et al., Arthritis Rheum 1996; 39:34-40), DAS28-CRP≦3.2 (Wells et al., supra), DAS28-CRP<2.6 (Wells et al., supra), and the incidence of adverse events. Protocol-specified DAS28 outcomes were preferentially CRP-based rather than erythrocyte sedimentation rate (ESR)-based, as CRP usually changes before ESR. […] Multiplex technology (Luminex Inc., Austin, Tex.) measured these serum cytokines using high-sensitivity assays (sensitivities <0.5 pg/mL, allowing the detection of very low concentrations of cytokines) and identical lots of critical reagent of negligible cross-reactivity <2%, according to manufacturers' instructions (Bio-Rad, Hercules, Calif.). […] To enable intention-to-treat analyses with all patients N=53, non-detectable values were set at the lower limit of detection for cytokines, as is common for CRP values.
The original power calculation is previously reported (Kass A S, et al., Scand J Rheumatol Epub ahead of print 1 Nov. 2013). Baseline-adjusted between-group differences for all continuous endpoints were assessed with the use of analysis-of-covariance using outcome measurements at predefined time points as response variables, and treatment and baseline measurements as covariates. Dichotomous endpoints were compared with the Pearson chi-square test or Suissa-Shuster exact unconditional test, depending on expected-value distribution (Lydersen S, et al., Stat Med 2009; 28:1159-75). […]

[6] = test system: RA patients with high gonadotropin levels; assay: Example 2: adverse events in high gonadotropin patients; assay type: in vivo, human
Protocol: The intention-to-treat population was predefined as all randomised patients who received any study-drug injections. Missing values were <1% and could, as predefined, be imputed with the last-observation-carried-forward. The assumptions of normality needed for analyses were approximately valid. All statistical tests were two-sided (α=0.05) and performed with Stata 12 and StatXact 9. Analyses were performed by an offsite statistician who received locked databases from blinded investigators and laboratories, and the allocation key from the offsite central office.

CC(=O)N[C@H](Cc1ccc2ccccc2c1)C(=O)N[C@H](Cc1ccc(Cl)cc1)C(=O)N[C@H](Cc1cccnc1)C(=O)N[C@@H](CO)C(=O)N[C@@H](Cc1ccc(O)cc1)C(=O)N[C@H](CCCNC(N)=O)C(=O)N[C@@H](CC(C)C)C(=O)N[C@@H](CCCNC(=N)N)C(=O)N1CCC[C@H]1C(=O)N[C@H](C)C(N)=O [cetrorelix] (Ac-[d2Nal][dPhe(4-Cl)][d3Pal]SY[dCit]LRP[dA]-NH2)
Adverse effects: Headache ([1]; N = 48): 2 (4.2) n (percent) | Adverse effects: Hot flushes ([1]; N = 48): 2 (4.2) n (percent) | Adverse effects: Injection site discomfort ([1]; N = 48): 3 (6.3) n (percent) | Adverse effects: Menstrual spotting ([1]; N = 48): 2 (4.2) n (percent) | Adverse effects: Nasopharyngitis ([1]; N = 48): 1 (2.1) n (percent) | Adverse effects: Nausea ([1]; N = 48): 0 n (percent) | Adverse effects: Toothache ([1]; N = 48): 0 n (percent) | Adverse effects: Urinary tract infection ([1]; N = 48): 1 (2.1) n (percent) | serious side-effects ([1]; all patients): no serious side-effects were observed | pro-inflammatory cytokine gene expression through GnRH receptors [2]: directly decrease | Cortisol change compared with placebo (words) [3]: significantly decreased | gonadotropins change compared to placebo [3]: significantly reduced | oestradiol change compared to placebo [3]: significantly reduced | testosterone change compared to placebo [3]: significantly reduced | gonadotropin levels, onset ([3]; by day 2): decreased | Cortisol between-group difference ([3]; by day 5, 95% CI 10.5 to 95.8, P=0.016): 53.1 nmol/L | Cortisol change compared with placebo (words) ([3]; listed as Cetrorelix): significantly reduced | TNF-α reduction (change from baseline) ([4]; all patients with detectable TNF-α, placebo −0.02): −0.58 log pg/mL | TNF-α between group difference vs placebo ([4]; 95% CI 0.08-1.01, p 0.023): 0.55 log pg/mL | TNF-α percentage change from baseline ([4]; placebo 11.1%): −28.2% | TNF-α level, Final Day 15 ([5]; N = 27, mean ± SD): 0.01 ± 2.1 log pg/mL | TNF-α Change from baseline by day 15 ([5]; N = 27, placebo +0.02): −0.45 log pg/mL | TNF-α Baseline-Adjusted Between-Group Difference ([5]; day 15, 95% CI (0.01, 0.96), P < 0.05): 0.49‡ log pg/mL | Adverse events: Headache ([6]; N = 27): 2 (7.4) no. % | Adverse events: Injection site discomfort ([6]; N = 27): 2 (7.4) no. % | Adverse events: Nausea ([6]; N = 27): 0 no. % | Adverse events severity ([6]; high gonadotropin patients): mild
